Data reported in ChEMBL document CHEMBL1201862, “PubChem BioAssay data set” (2004).
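Following 48 hours of exposure in 96-well plates, responses at five concentrations were used to interpolate endpoints linearly. Abbreviation: GI50, concentration required for 50% inhibition of growth.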 Active and inactive are the calls of the source. Cut-off read from the data, not from the text of the source: active = GI50 up to about 1.1 µM and inactive = higher.

How the values were obtained:
Experiment in all cases: DTP human tumour cell line panel, 48 h
Hs-578T = tested on: Hs-578T
PC-3 = tested on: PC-3
HL-60 = tested on: HL-60
OVCAR-5 = tested on: OVCAR-5
HCT-116 = tested on: HCT-116
HT-29 = tested on: HT-29
EKVX = tested on: EKVX
RXF 393 = tested on: RXF 393
UACC-62 = tested on: UACC-62
COLO 205 = tested on: COLO 205
HCT-15 = tested on: HCT-15
A549 = tested on: A549
HOP-62 = tested on: HOP-62
A498 = tested on: A498
MDA-N = tested on: MDA-N
NCI-H522 = tested on: NCI-H522
UACC-257 = tested on: UACC-257
SF-268 = tested on: SF-268
BT-549 = tested on: BT-549

SMILES | GI50 (Hs-578T) | GI50 (PC-3) | GI50 (HL-60) | GI50 (OVCAR-5) | GI50 (HCT-116) | GI50 (HT-29) | GI50 (EKVX) | GI50 (RXF 393) | GI50 (UACC-62) | GI50 (COLO 205) | GI50 (HCT-15) [µM] | GI50 (A549) | GI50 (HOP-62) | GI50 (A498) | GI50 (MDA-N) | GI50 (NCI-H522) | GI50 (UACC-257) | GI50 (SF-268) | GI50 (BT-549)
COC(=O)CN1CCN(c2cccc3c2CCCC3)CC1 | > 100 µM (inactive) | 64.6 µM (inactive) | 35.2 µM (inactive) | 48.9 µM (inactive) | 32.4 µM (inactive) | 18.2 µM (inactive) | 66.2 µM (inactive) | > 100 µM (inactive) | > 100 µM (inactive) | 29.2 µM (inactive) | > 100 | 69.5 µM (inactive) | > 100 µM (inactive) | > 100 µM (inactive) | > 100 µM (inactive) | 67.6 µM (inactive) | 50.6 µM (inactive) |  | 
[O-][S+](Nc1ccccc1)c1ccccc1Oc1ccccc1 (configuration not stated) | 2.84 µM (inactive) | 39.2 µM (inactive) | 25.5 µM (inactive) | > 100 µM (inactive) | 34.1 µM (inactive) | 60.5 µM (inactive) | 26 µM (inactive) | 48.2 µM (inactive) |  | > 100 µM (inactive) | 27.7 | 27 µM (inactive) | 32.7 µM (inactive) |  | 57.1 µM (inactive) | 25 µM (inactive) | 51.2 µM (inactive) | 16.3 µM (inactive) | 
CN1C(=O)NC(=O)/C(=C\Nc2ncccn2)C1=O | > 100 µM (inactive) | > 100 µM (inactive) | > 100 µM (inactive) | > 100 µM (inactive) | > 100 µM (inactive) | > 100 µM (inactive) | > 100 µM (inactive) |  | > 100 µM (inactive) | > 100 µM (inactive) | > 100 | > 100 µM (inactive) | > 100 µM (inactive) | > 100 µM (inactive) | > 100 µM (inactive) | > 100 µM (inactive) | > 100 µM (inactive) | > 100 µM (inactive) | 
C=C1CN(Cc2ccccc2)[C@@H]2CCCCC[C@H](C#N)[C@H]12 |  | > 74.1 µM (inactive) |  | > 100 µM (inactive) | > 72.4 µM (inactive) | > 67.5 µM (inactive) | > 100 µM (inactive) | > 60.8 µM (inactive) | > 100 µM (inactive) | > 100 µM (inactive) | > 100 | 78 µM (inactive) | > 69.2 µM (inactive) | > 100 µM (inactive) | > 100 µM (inactive) | 65.8 µM (inactive) | > 100 µM (inactive) | > 100 µM (inactive) | > 100 µM (inactive)
N#CI1OC(=O)c2ccccc21 |  | > 100 µM (inactive) | 59.6 µM (inactive) | > 100 µM (inactive) | > 100 µM (inactive) | > 100 µM (inactive) | > 100 µM (inactive) | > 100 µM (inactive) | > 100 µM (inactive) | > 100 µM (inactive) | 37.2 | > 100 µM (inactive) | > 100 µM (inactive) | > 100 µM (inactive) |  | 18.2 µM (inactive) | > 100 µM (inactive) | > 100 µM (inactive) | 91.2 µM (inactive)
COc1ccc(-c2nc(Nc3ccccc3)sc2Cc2sc(Nc3ccccc3)nc2-c2ccc(OC)cc2)cc1 |  |  | 0.787 µM (active) | > 100 µM (inactive) | 43.4 µM (inactive) | 70.6 µM (inactive) | > 100 µM (inactive) | 4.35 µM (inactive) | > 100 µM (inactive) | 7.57 µM (inactive) | > 100 | > 100 µM (inactive) | > 100 µM (inactive) | 25.2 µM (inactive) | 46.1 µM (inactive) |  | > 100 µM (inactive) | > 100 µM (inactive) | > 100 µM (inactive)
CCCCCCCCCCCCCCCCOCC(CC(F)(F)P(=O)(OCC)OCC)OC(C)=O (configuration not stated) |  | 13.8 µM (inactive) |  | 18.3 µM (inactive) | 3.17 µM (inactive) | 14.9 µM (inactive) | 21.7 µM (inactive) | 23.8 µM (inactive) | 15.3 µM (inactive) | 18.2 µM (inactive) | 5.94 | 12 µM (inactive) |  | 12.5 µM (inactive) | 16.9 µM (inactive) | 13.1 µM (inactive) | 17.5 µM (inactive) | 12.6 µM (inactive) | 15.2 µM (inactive)
O=c1nc2n(cc1/C=C\Br)C1CC(O)C(CO2)O1 (configuration not stated) |  |  | 0.792 µM (active) | > 100 µM (inactive) | > 100 µM (inactive) | > 100 µM (inactive) | > 100 µM (inactive) | 25 µM (inactive) | > 100 µM (inactive) | > 100 µM (inactive) | > 100 | > 100 µM (inactive) | > 100 µM (inactive) | 49.9 µM (inactive) | > 100 µM (inactive) |  | > 100 µM (inactive) | > 100 µM (inactive) | > 100 µM (inactive)
CCOC(=O)/C(C#N)=C/Nc1c(C)n(C)n(-c2ccccc2)c1=O |  | > 100 µM (inactive) | > 100 µM (inactive) | > 100 µM (inactive) | > 100 µM (inactive) |  | > 100 µM (inactive) | > 100 µM (inactive) | > 100 µM (inactive) | > 100 µM (inactive) | > 100 | > 100 µM (inactive) |  | > 100 µM (inactive) | > 100 µM (inactive) | > 100 µM (inactive) | > 100 µM (inactive) |  | > 100 µM (inactive)
O=C(N/N=C/c1ccc(Cl)cc1)c1cc(I)cc(I)c1O |  | > 100 µM (inactive) | > 100 µM (inactive) | > 100 µM (inactive) | > 100 µM (inactive) | > 100 µM (inactive) | > 100 µM (inactive) | > 100 µM (inactive) |  | > 100 µM (inactive) | > 100 | > 100 µM (inactive) | > 100 µM (inactive) | 33.3 µM (inactive) | > 100 µM (inactive) |  | > 100 µM (inactive) |  | > 100 µM (inactive)
CN(C)c1ccc(/C=N/NC(=S)Nc2ccccc2)cc1 | > 100 µM (inactive) | > 100 µM (inactive) |  | > 100 µM (inactive) | > 100 µM (inactive) | > 100 µM (inactive) | > 100 µM (inactive) | > 100 µM (inactive) | > 100 µM (inactive) | > 100 µM (inactive) | > 100 | > 100 µM (inactive) | 96.4 µM (inactive) | > 100 µM (inactive) |  | > 100 µM (inactive) | > 100 µM (inactive) | > 100 µM (inactive) | > 100 µM (inactive)
O=C(NC(CO)CO)c1ccc2cc(C(=O)N3CC(CCl)c4ccc([N+](=O)[O-])cc43)[nH]c2c1 (configuration not stated) | > 100 µM (inactive) | > 100 µM (inactive) | > 100 µM (inactive) | > 100 µM (inactive) | > 100 µM (inactive) | > 100 µM (inactive) | > 100 µM (inactive) | > 100 µM (inactive) | > 100 µM (inactive) | 50 µM (inactive) | > 100 | > 100 µM (inactive) | > 100 µM (inactive) |  | > 100 µM (inactive) |  | > 100 µM (inactive) | > 100 µM (inactive) | > 100 µM (inactive)
COc1ccc(NC(=S)Nc2cc(C)ccn2)cc1 | > 100 µM (inactive) | > 100 µM (inactive) | > 100 µM (inactive) |  | > 100 µM (inactive) | > 100 µM (inactive) | > 100 µM (inactive) | > 100 µM (inactive) | > 100 µM (inactive) | > 100 µM (inactive) | > 100 |  | > 100 µM (inactive) | > 100 µM (inactive) |  |  | > 100 µM (inactive) | > 100 µM (inactive) | > 100 µM (inactive)
CCN(CC)c1ccc(C(=O)c2ccccc2C(=O)O)c(O)c1 |  |  | > 100 µM (inactive) | > 100 µM (inactive) | > 100 µM (inactive) | > 100 µM (inactive) | > 100 µM (inactive) | > 100 µM (inactive) | > 100 µM (inactive) | > 100 µM (inactive) | > 100 | > 100 µM (inactive) | > 100 µM (inactive) | > 100 µM (inactive) |  | 42.9 µM (inactive) | > 100 µM (inactive) | > 100 µM (inactive) | 
COc1ccc(OC)c2c1C1CCC(=O)N1CN2C(C)=O (configuration not stated) | > 100 µM (inactive) | > 100 µM (inactive) | > 100 µM (inactive) | > 100 µM (inactive) | > 100 µM (inactive) | > 100 µM (inactive) | > 100 µM (inactive) | > 100 µM (inactive) | > 100 µM (inactive) | > 100 µM (inactive) | > 100 | > 100 µM (inactive) | > 100 µM (inactive) | > 100 µM (inactive) | > 100 µM (inactive) | > 100 µM (inactive) | > 100 µM (inactive) | 75.5 µM (inactive) | 
NC1=C(N2CCOCC2)C(=O)NC2=N/C(=C\c3ccccc3O)C(=O)N21 | > 100 µM (inactive) |  | 41.6 µM (inactive) | > 100 µM (inactive) | > 100 µM (inactive) | > 100 µM (inactive) | > 100 µM (inactive) | > 100 µM (inactive) |  | > 100 µM (inactive) | 51.1 | > 100 µM (inactive) |  | > 100 µM (inactive) | > 100 µM (inactive) | 76.2 µM (inactive) | > 100 µM (inactive) | > 100 µM (inactive) | 
CCOC(=O)c1c(SC(=O)c2ccc(Cl)cc2)n(-c2ccccc2)c(=S)n(-c2ccccc2)c1=O | > 100 µM (inactive) | > 100 µM (inactive) | > 100 µM (inactive) | > 100 µM (inactive) | > 100 µM (inactive) | > 100 µM (inactive) | > 100 µM (inactive) | > 100 µM (inactive) | > 100 µM (inactive) | > 100 µM (inactive) | > 100 | > 100 µM (inactive) | > 100 µM (inactive) | > 100 µM (inactive) | > 100 µM (inactive) | > 100 µM (inactive) | > 100 µM (inactive) | > 100 µM (inactive) | 
